Where two headings read alike, the source gives them in different places.

Here are results for four molecules from US20080255099A1 (priority 2004, published 2008).

One data set relates to HeLa. The settings on record: HeLa cells; T. Saito et al. 1985; cited from earlier work.
Data set [1] concerns the target T1, Biot-Hif-1α^786-826/GST-p300^323/423 (Homo sapiens, UniProt Q09472).
T1 construct: the p300 region comprised between the 323-423 aminoacids; made in house; host or cells: E. coli BL21 (DE3), vector pGEX-4T-1
Nature of the data set: Inhibition of Hif-1α/p300 interaction, DELFIA fluorescence assay. The data set is classed as binding. Conditions: for inhibition of the interaction between Hif-1α and p300 (in words): fluorescency assay adapted from Freedman et al.

The test system of the next data set is secreted VEGF. Nature of the data set: Secreted VEGF ELISA test in Hep3B-VEGF Luciferase cells under deferoxamine-induced hypoxia. The settings on record: deferoxamine 100 μM, 18-20 h, read-out: IC50 for inhibition of secreted VEGF (ELISA). The data set is classed as cell-based, human.
Another data set deals with VEGF promoter. Nature of the data set: Luciferase assay for inhibition of the VEGF promoter in Hep3B-VEGF Luciferase cells. Conditions: deferoxamine 100 μM, 18-20 h, read-out: IC50 for inhibition of luciferase signal (VEGF promoter). The data set is classed as cell-based, human.
Another data set relates to tumor growth. The settings on record: tumor-bearing mice; Kung et al. 2004; cited from earlier work.

T1 sequence (Q09472 323-423): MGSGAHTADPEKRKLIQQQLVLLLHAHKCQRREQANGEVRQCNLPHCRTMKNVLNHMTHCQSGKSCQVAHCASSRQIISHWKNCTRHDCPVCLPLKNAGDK

On to `CN1C(=O)[C@]23SS[C@@]1(CO)C(=O)N2[C@H]1Nc2ccccc2C1([C@@]12c4ccccc4N[C@@H]1N1C(=O)[C@]4(CO)SS[C@]1(C(=O)N4C)[C@H]2O)[C@@H]3O` (stereo partly drawn) [11α,11α′-dihydroxy Chaetocin, reference compound], for which the “cytotoxic activity IC50” value with HeLa is recorded as “about 0.03 μg/mL”.
Take `CN1C(=O)[C@@]23CC4([C@]56C[C@@]78SS[C@@](CO)(C(=O)N7[C@H]5Nc5ccccc56)N(C)C8=O)c5ccccc5N[C@@H]4N2C(=O)[C@]1(CO)SS3` (stereo partly shown) [chaetocin]: the IC50 in data set [1] was 12500 nM; in the data set on secreted VEGF (Homo sapiens), 100 nM; with VEGF promoter (Homo sapiens), 40 nM. Besides, the “inhibition of the interaction between Hif-1α and p300 (in words)” value in data set [1] is “able to inhibit the interaction between Hif-1α and p300”. Also, the “cytotoxic activity IC50” value in the data set with HeLa is reported as “about 0.03 μg/mL”.
As to `CN1C(=O)[C@]2(Cc3cn(C45C[C@@]67SS[C@@](CO)(C(=O)N6[C@H]4Nc4ccccc45)N(C)C7=O)c4ccccc34)SS[C@@]1(CO)C(=O)N2C` (stereo partly shown) [chaetomin], the “tumor growth and hypoxia-induced transcription in the tumor (in words)” value in the data set on tumor growth is “inhibits hypoxia-induced transcription in the tumor and tumor growth”.
gliotoxin: in data set [1], the “inhibition of the interaction between Hif-1α and p300 (in words)” value was “able to inhibit the interaction between Hif-1α and p300”. The IC50 in the data set on secreted VEGF is 200 nM; in the data set with VEGF promoter, 50 nM.
